# From patent US20100324285A1, “ANTIINFLAMMATORY AGENT COMPRISING 2-AMINOPHENOL OR DERIVATIVE THEREOF AS ACTIVE INGREDIENT” (priority 2006, published 2010)
# Like-named read-outs stand apart in the source and are kept apart here.
# Experiments:
# [1] = target: T1, COX-1 (Ovis aries, UniProt P05979); assay: COX Inhibitor Screening Assay Kit, COX-1; format: biochemical
# T1 construct: purchased Cayman Chemical Company
# T1 sequence (P05979 25-600): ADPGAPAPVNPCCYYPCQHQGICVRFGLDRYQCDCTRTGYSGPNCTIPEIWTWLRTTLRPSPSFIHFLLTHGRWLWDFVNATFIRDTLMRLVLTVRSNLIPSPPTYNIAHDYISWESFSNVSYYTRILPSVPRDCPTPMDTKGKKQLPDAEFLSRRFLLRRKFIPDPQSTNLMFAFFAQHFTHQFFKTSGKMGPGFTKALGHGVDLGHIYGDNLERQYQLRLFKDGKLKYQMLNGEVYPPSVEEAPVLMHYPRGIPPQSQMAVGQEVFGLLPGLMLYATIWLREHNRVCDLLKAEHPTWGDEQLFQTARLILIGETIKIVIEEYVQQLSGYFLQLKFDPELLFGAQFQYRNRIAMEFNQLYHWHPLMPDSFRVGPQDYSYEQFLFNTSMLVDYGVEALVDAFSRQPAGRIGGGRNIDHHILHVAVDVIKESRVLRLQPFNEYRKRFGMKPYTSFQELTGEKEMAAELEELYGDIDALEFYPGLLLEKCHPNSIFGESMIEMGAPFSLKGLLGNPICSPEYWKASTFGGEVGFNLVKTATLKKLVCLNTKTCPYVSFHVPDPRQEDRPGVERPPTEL
# Description: (§1) Fifty percent inhibitory concentration (IC50) means the concentration of test sample necessary for inhibiting PGE2 synthesis by 50% compared to non-inhibitory control sample. It can be also determined by measuring the amount of PGE2 produced by adding test samples to cells having cyclooxygenase activity. COX-1/COX-2 ratio means the ratio of […], and the higher the ratio is, the more specific to COX-2 the agent is.
# (§2) To verify the results of Experiment 2, it was investigated that whether the activity of COXs, essential enzymes for PGE2 synthesis system, can be inhibited. […] An experimental system without the test samples was set as control. The residual activity of COX-1 or COX-2 was determined as relative activity versus control.
# [2] = target: T2, COX-2 (Homo sapiens, UniProt P35354); assay: COX Inhibitor Screening Assay Kit, COX-2; format: biochemical
# T2 sequence (P35354 18-604): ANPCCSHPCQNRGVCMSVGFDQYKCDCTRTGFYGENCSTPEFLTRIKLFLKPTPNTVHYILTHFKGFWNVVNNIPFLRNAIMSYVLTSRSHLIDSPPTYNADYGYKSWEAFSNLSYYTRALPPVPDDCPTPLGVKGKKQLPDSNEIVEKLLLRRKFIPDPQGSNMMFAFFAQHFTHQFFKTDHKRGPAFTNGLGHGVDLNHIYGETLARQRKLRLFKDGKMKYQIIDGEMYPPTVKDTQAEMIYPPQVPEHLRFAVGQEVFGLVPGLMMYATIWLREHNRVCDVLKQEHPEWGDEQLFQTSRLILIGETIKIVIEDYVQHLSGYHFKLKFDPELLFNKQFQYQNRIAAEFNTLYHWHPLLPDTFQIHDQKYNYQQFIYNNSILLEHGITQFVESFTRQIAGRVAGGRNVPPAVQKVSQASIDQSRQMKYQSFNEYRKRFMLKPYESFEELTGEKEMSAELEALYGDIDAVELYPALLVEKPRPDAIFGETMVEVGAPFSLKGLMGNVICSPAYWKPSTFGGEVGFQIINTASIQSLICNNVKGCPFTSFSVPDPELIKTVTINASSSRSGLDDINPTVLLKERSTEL
# Description: as §1, §2
# [3] = system: Mouse melanoma cell line B16; assay: Melanin synthesis in B16 cells; format: cell-based; conditions: for Amount of melanin (%): 5 days, per mg protein versus control
# Method: (§3) As control, a system with no test sample was provided. […] The amount of protein was measured by conventional Bradfordmethod and the amount of melanin per 1 mg of protein was calculated. The amount of melanin (%) was calculated according to Formula 4, and the living cell rate (%) was calculated according to Formula 5.
# As control, a system with no test sample was provided. […] The amount of protein was measured by conventional Bradford method and the amount of melanin per 1 mg of protein was calculated. The amount of melanin (%) was calculated according to Formula 4.
# [4] = system: Mouse melanoma cell line B16; assay: Living cell rate of B16 cells; conditions: 5 days, versus control
# Method: as §3
# [5] = system: RAW264.7 cells; assay: NO production by macrophage RAW264.7, Griess method; format: cell-based, mouse; conditions: LPS + IFN-γ, 2 days, relative level versus control
# Description: As macrophage cells, RAW264.7 cell strain from mouse or macrophage cells obtained from laboratory animals such as mouse can be used. The amount of produced NO can be measured by conventional Griess method. […] RAW264.7 cells, a murine macrophage cell strain, were suspended in PRMI1640 medium supplied with 10% (v/v) fetal calf serum (hereinafter abbreviated as “FCS”) to give a cell suspension with a cell concentration of 1×10^6 cells/ml. […] The experimental system without the test samples described above was set as control. […] NO production, PGE2 production and macrophage growth are indicated as relative levels versus controls.
# [6] = system: RAW264.7 cells; assay: PGE2 production by macrophage RAW264.7, PGE2-EIA kit; format: cell-based, mouse; conditions: LPS + IFN-γ, 2 days, relative level versus control
# Description: (§4) RAW264.7 cells, a murine macrophage cell strain, were suspended in PRMI1640 medium supplied with 10% (v/v) fetal calf serum (hereinafter abbreviated as “FCS”) to give a cell suspension with a cell concentration of 1×10^6 cells/ml. […] The experimental system without the test samples described above was set as control. […] NO production, PGE2 production and macrophage growth are indicated as relative levels versus controls.
# [7] = system: RAW264.7 cells; assay: Macrophage growth, living cell count; format: cell-based, mouse; conditions: 2 days, relative level versus control
# Description: as §4
# [8] = target: T2, COX-2; conditions: nonsteroidal COX inhibitors, comparison values, source not given; cited from earlier work
# [9] = read-out: residual activity of COX-1
# [10] = read-out: residual activity of COX-2
structure (smiles),measurement,setting,value
Nc1ccccc1O [2-Aminophenol],IC50,[1],28 µM
same,remaining activity at 8 µM,[1]; [9],66%
same,remaining activity at 16 µM,[1]; [9],73%
same,remaining activity at 32 µM,[1]; [9],42%
same,IC50,[2],27.7 µM
same,COX-1/COX-2 ratio,[2]; ratio of IC50 values of Table 2,about 1
same,remaining activity at 8 µM,[2]; [10],72%
same,remaining activity at 16 µM,[2]; [10],60%
same,remaining activity at 32 µM,[2]; [10],47%
same,Amount of melanin (%),[3]; 1 μM,62%
same,Amount of melanin (%),[3]; 2 μM,55%
same,Amount of melanin (%),[3]; 4 μM,50%
same,inhibiting effect on melanin production higher than that of kojic acid,[3]; in the concentration at which the cell-growth was not inhibited,1.000 fold
same,Living cell rate (%),[4]; 1 μM,95%
same,Living cell rate (%),[4]; 2 μM,79%
same,Living cell rate (%),[4]; 4 μM,52%
"CC(=O)Oc1ccccc1C(=O)O [AS, aspirin]",NO production (%),[5]; 0.16 μM,101%
same,NO production (%),[5]; 0.31 μM,102%
same,NO production (%),[5]; 0.63 μM,102%
same,NO production (%),[5]; 1.3 μM,93%
same,NO production (%),[5]; 2.5 μM,95%
same,NO production (%),[5]; 5.0 μM,90%
same,NO production (%),[5]; 10 μM,86%
same,PGE2 production (%),[6]; 0.16 μM,98%
same,PGE2 production (%),[6]; 0.31 μM,99%
same,PGE2 production (%),[6]; 0.63 μM,79%
same,PGE2 production (%),[6]; 1.3 μM,47%
same,PGE2 production (%),[6]; 2.5 μM,33%
same,PGE2 production (%),[6]; 5.0 μM,8%
same,PGE2 production (%),[6]; 10 μM,3%
same,Macrophage growth (%),[7]; 0.16 μM,103%
same,Macrophage growth (%),[7]; 0.31 μM,100%
same,Macrophage growth (%),[7]; 0.63 μM,95%
same,Macrophage growth (%),[7]; 1.3 μM,85%
same,Macrophage growth (%),[7]; 2.5 μM,86%
same,Macrophage growth (%),[7]; 5.0 μM,89%
same,Macrophage growth (%),[7]; 10 μM,89%
same,COX-1/COX-2 ratio,[8],0.24
